Measurements from patent US11129845B2, “Compositions and methods for the delivery of nucleic acids” (CASE WESTERN RESERVE UNIVERSITY, priority 2014, dated 2021).

Columns and labels:
[1] = test system: luciferase reporter; assay: Luciferase reporter silencing in HT29-Luc cells; format: cell-based, human; conditions: for Luciferase expression: 100 nM siRNA
Procedure: Gene silencing efficiency was investigated in the HT29-Luc cell line by analyzing the expression of a luciferase reporter after anti-Luc siRNA therapy. To perform this study, cancer cells were seeded in 12 well plates at a density of 20,000 cells per well. Transfections were conducted in fresh serum-free media with 100 nM of siRNA when the cells were 25% confluent. The cells continued to grow in normal growth media for an additional 48 and 72 h, at which point they were rinsed twice with PBS and lysed for protein collection. The lysis buffer was a component of a Promega Luciferase Assay kit designed for measuring luciferase expression in the cell lysate. Equally important, the lysis buffer was compatible with the BCA protein assay so that we were able to normalize the luciferase expression in our samples with total protein content. For this silencing study, all synthesized carriers were evaluated at N/P ratios of 8, 10, 12, 14, 16, 18, and 20 to determine the best transfection formulation. Relative luciferase expression was determined for each trial using a SpectraMax luminometer upon the addition of a light-inducing luciferin substrate to the collected protein.
The RNAi capabilities of each carrier were investigated by analyzing the silencing of a luciferase (Luc) reporter in HT29 cancer cells after anti-Luc siRNA therapy. To perform this study, we seeded HT29-Luc cells in 12 well plates at a density of 20,000 cells per well. When 25% confluency, the cells were incubated with fresh serum-free transfection media containing nanoparticles at a dose of 100 nM siRNA. After 4 hours, the media was replaced with fresh complete growth media, so that the cells could continue to grow for an additional 48-72 hours, at which point they were lysed for protein collection. The lysis buffer was compatible with the BCA protein assay so that we could normalize luciferase expression in our samples. Negative controls included cells that were treated with 1) particles encapsulating non-specific siRNA, 2) naked anti-Luc siRNA, or 3) plain serum-free media. Luciferase expression was determined using a Spectra Max luminometer upon the addition of a light-inducing substrate to the collected protein. A similar knockdown experiment was also conducted in non-cancerous CHO cells expressing a GFP reporter. Flow cytometry was utilized to assess the silencing efficiency of the ECO and ECL delivery systems in this cell line. Cytotoxicity of the carriers 48 hours post-transfection was also investigated in both cell lines using an MTT colorimetric assay. […] These RNAi silencing levels surpassed those obtained with a Lipofectamine RNAiMax commercial transfection agent.

[2] = Ribogreen siRNA entrapment efficiency of ECO/siRNA nanoparticles; format: physicochemical
From the text: A Ribogreen assay (Molecular Probes) was used to quantify the entrapment efficiency of siRNA within the ECO/siRNA nanoparticles. […] Free siRNA following particle formation was detected using a SpectraMax microplate reader (Molecular Devices) with an excitation of 500 nm and emission of 525 nm.

[3] = test system: HT29-Luc cells; assay: Live-cell confocal imaging of intracellular siRNA release; format: cell-based, human
Procedure: Live-cell confocal imaging was utilized to image the intracellular release and dispersion of siRNA following transfection with the lipid carrier that performed best during the reporter knockdown studies. Approximately 50,000 HT29-Luc cells were seeded onto glass-bottom dishes (MatTek—Ashland, Mass.). Once 40% confluency was established, the cells were stained with 75 nM LysoTracker Red DND-99 (Invitrogen) for 30 min in normal growth medium. Afterwards, the cells were transfected with 100 nM Alexa Fluor 488-labeled anti-Luc siRNA in fresh serum-free media using the designed cationic lipid agent that performed the best in the above reporter knockdown experiments. Imaging commenced 5 min post-transfection using an Olympus FV1000 confocal microscope, and continued periodically over the first 2 h. Throughout the course of the study, all cells were kept alive on the microscope in a humidified weather station under normal gas conditions (5% CO2). Another image was acquired after 24 h following re-administration of the LysoTracker stain.
Confocal microscopy was utilized to perform a time course study that analyzed the uptake and intracellular release kinetics of siRNA using the ECO delivery platform. Intracellular release and dispersion of siRNA is essential in RNA interference since the RNAi machinery is found in the cytosol. The images in FIG. 27 reveal that upon cellular uptake, the ECO nanoparticles are able to facilitate the escape of its siRNA payload from the endocytic pathway within the first 2 hours after transfection, avoiding lysosomal degradation. Such results are in congruence with the hemolytic activity data showing the membrane disruptive properties of the delivery system in pH environments characteristic of both endosomes and lysosomes.

SMILES: CCCCCCCC/C=C\CCCCCCCC(=O)N[C@@H](CS)C(=O)NCCNC(=O)CCN(CCN)CCC(=O)NCCNC(=O)[C@H](CS)NC(=O)CCCCCCC/C=C\CCCCCCCC [ECO, (1-aminoethyl)iminobis[N-(oleicylcysteinyl-1-amino-ethyl)propionamide]]
- luciferase knockdown (transfection efficiency) ([1]; HT29, N/P 18, 72 h post-transfection): 77.5±3.3%
- silencing efficiency ([1]; HT29-Luc, N/P ratio of 18, over 72 hours): 80%
- Luciferase expression ([1]; HT29-Luc, N/P=12, 72 h): 33.5±3.82%
- Luciferase expression ([1]; HT29-Luc, N/P=18 (Lipofectamine per manufacturer), 72 h): 22.7±3.31%
- siRNA entrapment (RiboGreen) ([2]; N/P=6): 82.1±4.3%
- siRNA entrapment (RiboGreen) ([2]; N/P=20): 98.7±5.0%
- time to escape of siRNA payload from the endocytic pathway ([3]; HT29-Luc, after transfection): ≤ 90 min
- time to evade lysosomal degradation ([3]; HT29-Luc, post-transfection): ≤ 1 h
- time to escape of siRNA payload from the endocytic pathway ([3]; after transfection (Example 3)): ≤ 120 min
